Measurements from patent US10202350B2, “MCT4 inhibitors for treating disease” (Vettore, LLC, priority 2015, dated 2019).

Tests used:
MCT4 = MCT4 (Homo sapiens (Human), UniProt O15427); assay: MCT4-mediated lactate transport in MDA-MB-231 breast cancer cells; type: cell-based; conditions: MDA-MB-231 cells, native MCT4; 50 mM L-lactate
Method: (§1) 10 μL of a 30 mM DMSO stock of BCECF-AM ester (Life Technologies) is added and the cells are incubated at 37° C. for 5 min. The cells are pelleted (300 g, 5 min), washed once with 1 mL Tyrode's Solution, pH 7.4, re-pelleted (300 g, 5 min), and resuspended in 1 mL Tyrode's Solution, pH 7.4.
(§2) 2.5 μL BCECF-loaded cells, along with either 10 μL DMSO or 100×compound in DMSO, are added to 937.5 μL of Tyrode's Solution in a quartz 1.0 mL cuvette (PerkinElmer, B0631116). […] After establishing baseline BCECF fluorescence (around 10-20 s), 50 μL of 1 M sodium L-lactate (Sigma-Aldrich) is added to the cuvette (final concentration: 50 mM) and rapidly mixed. The time-dependent decrease in BCECF fluorescence (490/440 ratio) may be fit to an exponential decay curve (Prism GraphPad) to determine the rate of lactate transport.
Preparation of BCECF-loaded cells and lactate transport activity may be determined as described for Assay 1.

MCT1 = MCT1 (Homo sapiens (Human), UniProt P53985); assay: MCT1-mediated lactate transport in BT20 breast cancer cells; type: cell-based; conditions: native MCT1, 10 mM L-lactate, Table 3
Sequence of MCT1 (P53985 whole entry): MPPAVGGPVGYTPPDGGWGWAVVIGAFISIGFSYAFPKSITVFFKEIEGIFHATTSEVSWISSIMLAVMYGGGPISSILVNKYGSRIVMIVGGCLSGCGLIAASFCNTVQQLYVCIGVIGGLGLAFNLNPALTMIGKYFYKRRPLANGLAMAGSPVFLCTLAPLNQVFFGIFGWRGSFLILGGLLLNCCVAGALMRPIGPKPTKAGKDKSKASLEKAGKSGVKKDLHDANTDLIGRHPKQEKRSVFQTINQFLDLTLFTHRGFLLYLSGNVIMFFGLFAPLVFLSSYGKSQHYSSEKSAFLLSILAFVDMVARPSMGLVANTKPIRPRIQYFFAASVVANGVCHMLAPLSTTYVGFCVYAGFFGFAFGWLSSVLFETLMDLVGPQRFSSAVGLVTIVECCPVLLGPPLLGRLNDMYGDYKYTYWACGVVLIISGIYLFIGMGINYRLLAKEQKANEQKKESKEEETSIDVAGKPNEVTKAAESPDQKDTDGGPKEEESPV
Sequence of MCT1 (P35613 140-385 partner): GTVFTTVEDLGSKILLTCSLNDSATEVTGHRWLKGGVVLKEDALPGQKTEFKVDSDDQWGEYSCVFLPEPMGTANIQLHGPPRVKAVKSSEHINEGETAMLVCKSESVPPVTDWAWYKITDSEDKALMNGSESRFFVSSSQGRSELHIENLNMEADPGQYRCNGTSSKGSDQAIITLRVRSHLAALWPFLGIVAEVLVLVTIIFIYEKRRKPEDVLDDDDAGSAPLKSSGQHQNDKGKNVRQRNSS
Method: as §1, §2
Assay 4: MCT1-Mediated Lactate Transport in BT20 Breast Cancer Cells.
Preparation of BCECF loaded cells are as described for Assay 1. Lactate transport assay is as described for Assay 1, except 10 mM L-lactate (rather than 50 mM) is added.

Sequence of MCT4 (O15427 whole entry, looked up): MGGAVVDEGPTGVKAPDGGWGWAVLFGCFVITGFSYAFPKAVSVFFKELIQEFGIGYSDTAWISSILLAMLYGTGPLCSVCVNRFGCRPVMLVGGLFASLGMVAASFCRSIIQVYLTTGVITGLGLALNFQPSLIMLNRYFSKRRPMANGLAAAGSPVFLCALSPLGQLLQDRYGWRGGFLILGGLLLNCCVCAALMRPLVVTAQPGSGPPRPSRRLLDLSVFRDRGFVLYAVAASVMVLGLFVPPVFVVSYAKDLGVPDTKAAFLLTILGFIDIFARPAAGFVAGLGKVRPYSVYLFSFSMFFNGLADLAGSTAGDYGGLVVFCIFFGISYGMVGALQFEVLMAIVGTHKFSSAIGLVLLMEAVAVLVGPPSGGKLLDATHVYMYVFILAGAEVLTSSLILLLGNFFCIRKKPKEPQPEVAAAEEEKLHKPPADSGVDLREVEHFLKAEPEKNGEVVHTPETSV
Sequence of MCT4 (P35613 whole entry partner, looked up): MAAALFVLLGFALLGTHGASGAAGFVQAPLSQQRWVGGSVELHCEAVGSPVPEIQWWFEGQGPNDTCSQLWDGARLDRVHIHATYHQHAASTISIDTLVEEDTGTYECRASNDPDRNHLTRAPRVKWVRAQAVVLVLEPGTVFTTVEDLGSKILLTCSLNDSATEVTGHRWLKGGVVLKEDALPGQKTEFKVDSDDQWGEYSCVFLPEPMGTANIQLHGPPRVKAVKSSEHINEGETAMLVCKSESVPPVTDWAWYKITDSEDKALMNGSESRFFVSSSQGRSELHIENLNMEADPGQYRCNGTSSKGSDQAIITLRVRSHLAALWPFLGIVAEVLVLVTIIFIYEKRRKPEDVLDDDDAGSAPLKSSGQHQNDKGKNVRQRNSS

CC(C)(OCc1cc(-c2ccsc2)n(Cc2ccccc2Cl)n1)C(=O)O [Example 24, 2-[[1-[(2-Chlorophenyl)methyl]-5-(3-thienyl)pyrazol-3-yl]methoxy]-2-methyl-propanoic acid]
IC50 (MCT4): 30 nM | IC50 (MCT1): > 100000 nM

CC(C)(OCc1cc(-c2cccs2)n(Cc2ccccc2Cl)n1)C(=O)O [Example 25, 2-[[1-[(2-Chlorophenyl)methyl]-5-(2-thienyl)pyrazol-3-yl]methoxy]-2-methyl-propanoic acid]
IC50 (MCT4): 33 nM | IC50 (MCT1): 77000 nM

CC(C)COc1cccc(-c2cc(COC(C)(C)C(=O)O)nn2Cc2ccccc2F)c1 [Example 26, 2-[[1-[(2-Fluorophenyl)methyl]-5-(3-isobutoxyphenyl)pyrazol-3-yl]methoxy]-2-methyl-propanoic acid]
IC50 (MCT4): 9.4 nM | IC50 (MCT1): 27000 nM

CCOc1cccc(-c2cc(COC(C)(C)C(=O)O)nn2Cc2ccccc2Cl)c1 [Example 28, 2-[[1-[(2-Chlorophenyl)methyl]-5-(3-ethoxyphenyl)pyrazol-3-yl]methoxy]-2-methyl-propanoic acid]
IC50 (MCT4): 12 nM | IC50 (MCT1): 15000 nM

CC(C)Oc1cccc(-c2cc(COC(C)(C)C(=O)O)nn2Cc2ccccc2Br)c1 [Example 29, 2-[[1-[(2-Bromophenyl)methyl]-5-(3-isopropoxyphenyl)pyrazol-3-yl]methoxy]-2-methyl-propanoic acid]
IC50 (MCT4): 3.7 nM | IC50 (MCT1): 16000 nM

COc1cccc(-c2cc(COC(C)(C)C(=O)O)nn2Cc2ccccc2Br)c1 [Example 30, 2-[[1-[(2-Bromophenyl)methyl]-5-(3-methoxyphenyl)-1H-pyrazol-3-yl]methoxy]-2-methylpropanoic acid]
IC50 (MCT4): 8.8 nM | IC50 (MCT1): 27000 nM

COc1cccc(-c2cc(COC(C)(C)C(=O)O)nn2Cc2ccccc2C(C)C)c1 [Example 31, 2-[[1-[(2-Isopropylphenyl)methyl]-5-(3-methoxyphenyl)pyrazol-3-yl]methoxy]-2-methyl-propanoic acid]
IC50 (MCT4): 53 nM | IC50 (MCT1): 42000 nM

COc1cccc(-c2cc(COC(C)(C)C(=O)O)nn2Cc2ccccc2C)c1 [Example 32, 2-[[5-(3-Methoxyphenyl)-1-(o-tolylmethyl)pyrazol-3-yl]methoxy]-2-methyl-propanoic acid]
IC50 (MCT4): 79 nM | IC50 (MCT1): 83000 nM

CC(C)(OCc1cc(-c2cccc(OCC3CC3)c2)n(Cc2ccccc2Cl)n1)C(=O)O [Example 33, 2-[[1-[(2-Chlorophenyl)methyl]-5-[3-(cyclopropylmethoxy)phenyl]pyrazol-3-yl]methoxy]-2-methyl-propanoic acid]
IC50 (MCT4): 3.2 nM | IC50 (MCT1): 9100 nM

CC(C)(OCc1cc(-c2cccc(OC(F)(F)F)c2)n(Cc2ccccc2Cl)n1)C(=O)O [Example 34, 2-[[1-[(2-Chlorophenyl)methyl]-5-[3-(trifluoromethoxy)phenyl]pyrazol-3-yl]methoxy]-2-methyl-propanoic acid]
IC50 (MCT4): 9.3 nM | IC50 (MCT1): > 11000 nM

CC(C)(OCc1cc(-c2cccc(OC3CCC3)c2)n(Cc2ccccc2Cl)n1)C(=O)O [Example 37, 2-[[1-[(2-Chlorophenyl)methyl]-5-[3-(cyclobutoxy)phenyl]pyrazol-3-yl]methoxy]-2-methyl-propanoic acid]
IC50 (MCT4): 7.6 nM | IC50 (MCT1): 8400 nM

CC(C)(OCc1cc(-c2cccc(CN3CCOCC3)c2)n(Cc2ccccc2Cl)n1)C(=O)O [Example 40, 2-[[1-[(2-Chlorophenyl)methyl]-5-[3-(morpholinomethyl)phenyl]pyrazol-3-yl]methoxy]-2-methyl-propanoic acid]
IC50 (MCT4): 520 nM | IC50 (MCT1): > 100000 nM

COc1cccc(-c2cc(COC3(C(=O)O)CCC3)nn2Cc2ccccc2Cl)c1 [Example 41, 1-[[1-[(2-Chlorophenyl)methyl]-5-(3-methoxyphenyl)pyrazol-3-yl]methoxy]cyclobutanecarboxylic acid]
IC50 (MCT4): 55 nM | IC50 (MCT1): 1200 nM

CC(C)(OCc1cc(-c2cccc(OCC3CCC3)c2)n(Cc2ccccc2Cl)n1)C(=O)O [Example 42, 2-[[1-[(2-Chlorophenyl)methyl]-5-[3-(cyclobutylmethoxy)phenyl]pyrazol-3-yl]methoxy]-2-methyl-propanoic acid]
IC50 (MCT4): 2.6 nM

CC(C)(OCc1cc(-c2cccc(OCC(F)(F)F)c2)n(Cc2ccccc2Cl)n1)C(=O)O [Example 43, 2-[[1-[(2-Chlorophenyl)methyl]-5-[3-(2,2,2-trifluoroethoxy)phenyl]pyrazol-3-yl]methoxy]-2-methyl-propanoic acid]
IC50 (MCT4): 13 nM | IC50 (MCT1): > 33000 nM

CC(C)(OCc1cc(-c2cccc(OCC3CCCC3)c2)n(Cc2ccccc2Cl)n1)C(=O)O [Example 44, 2-[[1-[(2-Chlorophenyl)methyl]-5-[3-(cyclopentylmethoxy)phenyl]pyrazol-3-yl]methoxy]-2-methyl-propanoic acid]
IC50 (MCT4): 1.1 nM

CC(C)(OCc1cc(-c2cccc(OCC3CCOCC3)c2)n(Cc2ccccc2Cl)n1)C(=O)O [Example 45, 2-[[1-[(2-Chlorophenyl)methyl]-5-[3-(tetrahydropyran-4-ylmethoxy)phenyl]pyrazol-3-yl]methoxy]-2-methyl-propanoic acid]
IC50 (MCT4): 19 nM | IC50 (MCT1): 12000 nM

CC(C)(OCc1cc(-c2cccc(N3CCOCC3)c2)n(Cc2ccccc2Cl)n1)C(=O)O [Example 46, 2-[[1-[(2-Chlorophenyl)methyl]-5-(3-morpholinophenyl)pyrazol-3-yl]methoxy]-2-methyl-propanoic acid]
IC50 (MCT4): 142 nM | IC50 (MCT1): 47000 nM

CC(C)(OCc1cc(-c2cscn2)n(Cc2ccccc2Cl)n1)C(=O)O [Example 47, 2-([1-[(o-Chlorophenyl)methyl]-5-(1,3-thiazol-4-yl)-1H-pyrazol-3-yl]methoxy)-2-methylpropionic acid]
IC50 (MCT4): 410 nM | IC50 (MCT1): > 100000 nM

CC(C)(OCc1cc(-c2cccc(C#N)c2)n(Cc2ccccc2Cl)n1)C(=O)O [Example 48, 2-([1-[(o-Chlorophenyl)methyl]-5-(m-cyanophenyl)-1H-pyrazol-3-yl]methoxy)-2-methylpropionic acid]
IC50 (MCT4): 89 nM | IC50 (MCT1): 55000 nM

CC(C)(OCc1cc(-c2cncs2)n(Cc2ccccc2Cl)n1)C(=O)O [Example 49, 2-([1-[(o-Chlorophenyl)methyl]-5-(1,3-thiazol-5-yl)-1H-pyrazol-3-yl]methoxy)-2-methylpropionic acid]
IC50 (MCT4): 240 nM | IC50 (MCT1): 130000 nM

CN(C)c1cccc(-c2cc(COC(C)(C)C(=O)O)nn2Cc2ccccc2Cl)c1 [Example 50, 2-([1-[(o-Chlorophenyl)methyl]-5-[m-(dimethylamino)phenyl]-1H-pyrazol-3-yl]methoxy)-2-methylpropionic acid]
IC50 (MCT4): 70 nM | IC50 (MCT1): 34000 nM

CC(C)c1cccc(-c2cc(COC(C)(C)C(=O)O)nn2Cc2ccccc2Cl)c1 [Example 51, 2-([1-[(2-Chlorophenyl)methyl]-5-[3-(propan-2-yl)phenyl]-1H-pyrazol-3-yl]methoxy)-2-methylpropanoic Acid]
IC50 (MCT4): 15 nM | IC50 (MCT1): 6000 nM

COCc1cccc(-c2cc(COC(C)(C)C(=O)O)nn2Cc2ccccc2Cl)c1 [Example 52, 2-([1-[(2-chlorophenyl)methyl]-5-[3-(methoxymethyl)phenyl]-1H-pyrazol-3-yl]methoxy)-2-methylpropanoic acid]
IC50 (MCT4): 190 nM | IC50 (MCT1): 84000 nM

COc1cccc(-c2cc(COC(C)(C)C(=O)O)nn2Cc2ccccc2)c1 [Example 53, 2-[[1-benzyl-5-(3-methoxyphenyl)-1H-pyrazol-3-yl]methoxy]-2-methylpropanoic acid]
IC50 (MCT4): 160 nM | IC50 (MCT1): > 100000 nM

COc1cccc(-c2cc(COC(C)(C)C(=O)O)nn2-c2ccccn2)c1 [Example 56, 2-[[5-(3-methoxyphenyl)-1-(pyridin-2-yl)-1H-pyrazol-3-yl]methoxy]-2-methylpropanoic acid]
IC50 (MCT1): > 133000 nM

COc1cccc(-c2cc(COC(C)(C)C(=O)O)nn2-c2cccc(Cl)c2)c1 [Example 58, 2-[[1-(3-chlorophenyl)-5-(3-methoxyphenyl)-1H-pyrazol-3-yl]methoxy]-2-methylpropanoic acid]
IC50 (MCT1): 78000 nM

COc1cccc(-c2cc(COC(C)(C)C(=O)O)nn2-c2ccc(Cl)cc2)c1 [Example 59, 2-[[1-(4-chlorophenyl)-5-(3-methoxyphenyl)-1H-pyrazol-3-yl]methoxy]-2-methylpropanoic acid]
IC50 (MCT1): 81000 nM

CC(C)COc1cccc(-c2cc(COC(C)(C)C(=O)O)nn2Cc2ccccc2)c1 [Example 60, 2-([1-Benzyl-5-[3-(2-methylpropoxy)phenyl]-1H-pyrazol-3-yl]methoxy)-2-methylpropanoic Acid]
IC50 (MCT4): 13 nM | IC50 (MCT1): 44000 nM

CC(C)(OCc1cc(Cc2ccccc2)n(Cc2ccccc2Cl)n1)C(=O)O [Example 77, 2-([5-Benzyl-1-[(2-chlorophenyl)methyl]-1H-pyrazol-3-yl]methoxy)-2-methylpropanoic Acid]
IC50 (MCT1): 9000 nM

CC(C)(OCc1cc(-c2cccc(OCC3COC3)c2)n(Cc2ccccc2Cl)n1)C(=O)O [Example 80, 2-[[1-[(2-Chlorophenyl)methyl]-5-[3-(oxetan-3-ylmethoxy)phenyl]pyrazol-3-yl]methoxy]-2-methyl-propanoic Acid]
IC50 (MCT4): 81 nM
